Patent US20210278408A1, “METHODS OF TREATMENT OF CANCER WITH SUBSTITUTED PYRROLE AND PYRAZOLE COMPOUNDS AND DIAGNOSIS OF CANCERS SUSCEPTIBLE TO TREATMENT WITH SUBSTITUTED PYRROLE AND PYRAZOLE COMPOUNDS” (Bantam Pharmaceutical, LLC, priority 2018, published 2021)
pIC50: −log10 of the molar value. Like-named read-outs stand apart in the source and are kept apart here.

Test system: 407 cancer cell lines
Experiment: Cell viability of cancer cell lines (IC50), CellTiter-Glo Viability Assay, 96 h
Assay type: cell-based
Conditions: Homo sapiens, read-out: Absolute IC50
Experimental: Viability was determined by using the 50% inhibitory concentration (IC50) as determined with the CellTiter-Glo® Viability Assay (Promega).
Experiments were initiated by first thawing and equilibrating the CellTiter-Glo® Buffer to room temperature. The lyophilized CellTiter-Glo® Substrate was also equilibrated to room temperature. The lyophilized substrate was reconstituted with the CellTiter-Glo® buffer to form the CellTiter-Glo® Reagent.
Cells were harvested during the logarithmic growth period, counted, and the cell concentration adjusted to 4.44×10^4 cells/mL using culture medium.
Cells were allowed to grow overnight and the following day, the TO reading was obtained by adding 10 μL culture medium to each well of Plate A. The plate was allowed to equilibrate at room temperature for thirty minutes, after which 50 μL CellTiter-Glo® reagent was added to each well. The contents were mixed for 5 min on an orbital shaker to induce cell lysis. Plates were incubated for 20 minutes to stabilize the luminescent signal and the TO luminescence recorded.
Test plate B was incubated for 96 h in the humidified incubator at 37° C. with 5% CO2.
Following the incubation, the plate was equilibrated at room temperature for thirty minutes. CellTiter-Glo® (50 μL) was added to each well of the plate and contents mixed for five minutes on an orbital shaker to induce cell lysis. The luminescent signal was allowed to stabilize at room temperature for 20 minutes and the luminescence recorded.
IC50 (EC50) was calculated using a dose-response curve, fitted using a nonlinear regression model with a sigmoidal dose response. Survival rate was calculated using the formula:
The Surviving rate (%)=(LumTest article−LumMedium control)/(LumNon-treated−LumMedium control)×100%.
Absolute IC50 (EC50) was calculated according to the dose-response curve generated by the statistical software (GraphPad Prism 5.0).

`Cc1nn(-c2nc(-c3ccc(C(F)(F)F)cc3)c(SC(C)C)s2)c(C(=O)O)c1-c1cccc(F)c1` [Compound A197, 4-(3-fluorophenyl)-1-(5-(isopropylthio)-4-(4-(trifluoromethyl)phenyl)thiazol-2-yl)-3-methyl-1H-pyrazole-5-carboxylic acid] showed a pIC50 (NCI-H292, 96 h, NCI-H292 cells, 96 h) of less than 4.52, a pIC50 (NCI-H358, 96 h, NCI-H358 cells, 96 h) of 6.42 and a pIC50 (NCI-H441, 96 h, NCI-H441 cells, 96 h) of less than 4.52. It also gave a pIC50 (NCI-H446, 96 h, NCI-H446 cells, 96 h) of less than 4.52, a pIC50 (NCI-H460, 96 h, NCI-H460 cells, 96 h) of less than 4.52 and a pIC50 (NCI-H508, 96 h, NCI-H508 cells, 96 h) of 5.88. The pIC50 (NCI-H520, 96 h, NCI-H520 cells, 96 h) was 6.52, the pIC50 (NCI-H522, 96 h, NCI-H522 cells, 96 h) was less than 4.52 and the pIC50 (NCI-H526, 96 h, NCI-H526 cells, 96 h) was less than 4.52. It also gave a pIC50 (NCI-H596, NCI-H596) of less than 4.52, a pIC50 (NCI-H661, 96 h, NCI-H661 cells, 96 h) of less than 4.52 and a pIC50 (NCI-H716, 96 h, NCI-H716 cells, 96 h) of 5.80. It also gave a pIC50 (NCI-H727, 96 h, NCI-H727 cells, 96 h) of less than 4.52, a pIC50 (NCI-H747, 96 h, NCI-H747 cells, 96 h) of less than 4.52 and a pIC50 (NCI-H929, NCI-H929) of 4.72. For the same compound, the pIC50 (NCI-H1048, 96 h, NCI-H1048 cells, 96 h) was less than 4.52, the pIC50 (NCI-H1155, 96 h, NCI-H1155 cells, 96 h) was 6.34 and the pIC50 (NCI-H1299, 96 h, NCI-H1299 cells, 96 h) was 6.11. The pIC50 (NCI-H1373, NCI-H1373) was 6.10, the pIC50 (NCI-H1395, NCI-H1395) was 6.43 and the pIC50 (NCI-H1437, 96 h, NCI-H1437 cells, 96 h) was 6.51. It also gave a pIC50 (NCI-H1563, NCI-H1563) of less than 4.52, a pIC50 (NCI-H1573, 96 h, NCI-H1573 cells, 96 h) of 6.34 and a pIC50 (NCI-H1581, 96 h, NCI-H1581 cells, 96 h) of less than 4.52. The pIC50 (NCI-H1648, 96 h, NCI-H1648 cells, 96 h) was less than 4.52, the pIC50 (NCI-H1650, NCI-H1650) was less than 4.52 and the pIC50 (NCI-H1651, 96 h, NCI-H1651 cells, 96 h) was 6.07. For the same compound, the pIC50 (NCI-H1666, 96 h, NCI-H1666 cells, 96 h) was less than 4.52, the pIC50 (NCI-H1703, 96 h, NCI-H1703 cells, 96 h) was 6.44 and the pIC50 (NCI-H1792, 96 h, NCI-H1792 cells, 96 h) was 5.90. It also gave a pIC50 (NCI-H1838, 96 h, NCI-H1838 cells, 96 h) of less than 4.52, a pIC50 (NCI-H1975, 96 h, NCI-H1975 cells, 96 h) of less than 4.52 and a pIC50 (NCI-H1993, 96 h, NCI-H1993 cells, 96 h) of 5.92. It also gave a pIC50 (NCI-H2009, NCI-H2009) of 5.32, a pIC50 (NCI-H2052, NCI-H2052) of less than 4.52 and a pIC50 (NCI-H2087, 96 h, NCI-H2087 cells, 96 h) of less than 4.52. For the same compound, the pIC50 (NCI-H2122, 96 h, NCI-H2122 cells, 96 h) was 6.57, the pIC50 (NCI-H2170, 96 h, NCI-H2170 cells, 96 h) was 6.30 and the pIC50 (NCI-H2228, 96 h, NCI-H2228 cells, 96 h) was 6.21. For the same compound, the pIC50 (NCI-H2452, NCI-H2452) was less than 4.52, the pIC50 (NCI-H3122, 96 h, NCI-H3122 cells, 96 h) was 6.41 and the pIC50 (NCI-N87, 96 h) was 5.83. The pIC50 (NUGC-3, 96 h, NUGC-3 cells, 96 h) was 4.64, the pIC50 (NUGC-4, 96 h, NUGC-4 cells, 96 h) was 5.82 and the pIC50 (OCI-AML-3, OCI-AML3) was less than 4.52. For the same compound, the pIC50 (OCI-LY19, OCI-LY-19) was 6.02, the pIC50 (OCI-Ly7, 96 h, OCI-LY7 cells, 96 h) was 6.17 and the pIC50 (OE19, 96 h) was less than 4.52. For the same compound, the pIC50 (OPM-2, OPM2) was 6.43, the pIC50 (OS-RC-2, OS-RC-2) was less than 4.52 and the pIC50 (OVCAR-3, 96 h, OVCAR-3 cells, 96 h) was less than 4.52. The pIC50 (OVCAR-8, 96 h, OVCAR-8 cells, 96 h) was 5.99, the pIC50 (PANC-1, PANC-1) was 5.57 and the pIC50 (PC-3, PC-3) was less than 4.52. It also gave a pIC50 (PC-9, 96 h, PC-9 cells, 96 h) of 5.95, a pIC50 (PLC-PRF-5, PLC/PRF/5) of 5.91 and a pIC50 (Pfeiffer, 96 h, Pfeiffer cells, 96 h) of 6.74. The pIC50 (REH) was 6.51, the pIC50 (RKO) was 4.63 and the pIC50 (RL95-2, 96 h, RL95-2 cells, 96 h) was 6.38. It also gave a pIC50 (RPMI-2650, 96 h, RPMI-2650 cells, 96 h) of 6.09, a pIC50 (RPMI-8226, 96 h, RPMI 8226 cells, 96 h) of 6.12 and a pIC50 (RS4-11, RS4;11) of 6.16. It also gave a pIC50 (RT112/84, RT112/84) of 4.90, a pIC50 (RT-4, 96 h, RT4 cells, 96 h) of 6.08 and a pIC50 (Raji, 96 h, Raji cells, 96 h) of 6.35. For the same compound, the pIC50 (Ramos, 96 h, Ramos cells, 96 h) was 6.12, the pIC50 (SAOS-2, Saos-2) was 6.09 and the pIC50 (SCC-4, 96 h) was less than 4.52. The pIC50 (SCC-9, 96 h, SCC-9 cells, 96 h) was less than 4.52, the pIC50 (SCC-15, 96 h, SCC-15 cells, 96 h) was less than 4.52 and the pIC50 (SCC-25, 96 h, SCC-25 cells, 96 h) was less than 4.52. It also gave a pIC50 (SF-126, 96 h, SF-126 cells, 96 h) of less than 4.52, a pIC50 (SF-268, 96 h, SF268 cells, 96 h) of less than 4.52 and a pIC50 (SH-SY5Y) of less than 4.52. The pIC50 (SJSA-1, SJSA-1) was less than 4.52, the pIC50 (SK-BR-3, SK-BR-3) was 4.53 and the pIC50 (SK-CO-1, 96 h, SK-CO-1 cells, 96 h) was 5.95. The pIC50 (SK-HEP1, 96 h, SK-HEP-1 cells, 96 h) was less than 4.52, the pIC50 (SK-LU-1, 96 h, SK-LU-1 cells, 96 h) was 5.98 and the pIC50 (SK-MEL-5, 96 h) was less than 4.52. For the same compound, the pIC50 (SK-MEL-28, 96 h) was less than 4.52, the pIC50 (SK-MES-1, SK-MES-1) was 5.92 and the pIC50 (SK-N-FI, 96 h, SK-N-FI cells, 96 h) was 5.92. It also gave a pIC50 (SK-N-SH) of less than 4.52, a pIC50 (SK-NEP-1, 96 h, SK-NEP-1 cells, 96 h) of 5.97 and a pIC50 (SK-OV-3, 96 h, SK-OV-3 cells, 96 h) of less than 4.52. The pIC50 (SK-UT-1, 96 h, SK-UT-1 cells, 96 h) was less than 4.52, the pIC50 (SNU1, 96 h, SNU-1 cells, 96 h) was 4.97 and the pIC50 (SNU-5, 96 h) was 5.74. For the same compound, the pIC50 (SNU-354, SNU-354) was less than 4.52, the pIC50 (SNU-387, SNU-387) was less than 4.52 and the pIC50 (SNU-398, SNU-398) was 6.66. For the same compound, the pIC50 (SNU-423, 96 h, SNU-423 cells, 96 h) was less than 4.52, the pIC50 (SNU-449, SNU-449) was 4.62 and the pIC50 (SNU-475, 96 h, SNU-475 cells, 96 h) was 5.60. The pIC50 (SNU-638, 96 h, SNU-638 cells, 96 h) was less than 4.52, the pIC50 (ST486, 96 h, ST486 cells, 96 h) was 6.66 and the pIC50 (SU-DHL-1, SU-DHL-1) was 6.48. The pIC50 (SU-DHL-4, SU-DHL-4) was 5.97, the pIC50 (SU-DHL-5, 96 h, SU-DHL-5 cells, 96 h) was 6.38 and the pIC50 (SU-DHL-6, 96 h, SU-DHL-6 cells, 96 h) was 5.98. The pIC50 (SU-DHL-8, SU-DHL-8) was 6.12, the pIC50 (SUM-159-PT, SUM159PT) was 4.75 and the pIC50 (SUP-B15, SUP-B15) was 5.91. The pIC50 (SW13, SW-13) was 6.46, the pIC50 (SW48, 96 h, SW48 cells, 96 h) was less than 4.52 and the pIC50 (SW480, SW480) was less than 4.52. The pIC50 (SW626, 96 h, SW626 cells, 96 h) was less than 4.52, the pIC50 (SW684, 96 h, SW684 cells, 96 h) was less than 4.52 and the pIC50 (SW756, 96 h, SW756 cells, 96 h) was 4.55. The pIC50 (SW780, 96 h, SW780 cells, 96 h) was 4.65, the pIC50 (SW837, 96 h, SW837 cells, 96 h) was less than 4.52 and the pIC50 (SW948, 96 h, SW948 cells, 96 h) was less than 4.52. It also gave a pIC50 (SW982, 96 h, SW982 cells, 96 h) of less than 4.52, a pIC50 (SW 1116, 96 h, SW1116 cells, 96 h) of less than 4.52 and a pIC50 (SW1417, 96 h, SW1417 cells, 96 h) of less than 4.52. It also gave a pIC50 (SW1990, SW1990) of 4.74, a pIC50 (SiHa, 96 h, SiHa cells, 96 h) of less than 4.52 and a pIC50 (T47D) of less than 4.52. For the same compound, the pIC50 (T84, T84) was less than 4.52, the pIC50 (T-24, 96 h, T24 cells, 96 h) was less than 4.52 and the pIC50 (TE-1, TE-1) was 5.01. The pIC50 (TF-1, TF-1) was less than 4.52 and the pIC50 (THP-1, 96 h, THP-1 cells, 96 h) was 6.68.
